Measurements reported in US10670605B2, “Cysteine reactive probes and uses thereof” (The Scripps Research Institute, priority 2015, dated 2020).
One block for each compound: values may come before it.

Tests used:
Experiment in all cases: Competitive isoTOP-ABPP, cell lysates
Assay type in all cases: binding
LRBA C2675 (P50851) = LRBA C2675 (P50851) (Homo sapiens, UniProt P50851); conditions: for R value (DMSO/fragment) / isoTOP-ABPP ratio, P50851_C2675: 500 μM, invitro, ramos; for isoTOP-ABPP reactivity ratio, P50851_C2675: 500 μm
RRAGC C358 (Q9HB90) = RRAGC C358 (Q9HB90) (Homo sapiens, UniProt Q9HB90); conditions: for isoTOP-ABPP ratio (reactivity profile), Q9HB90_C358: 500 μm in-vitro ramos_231; for isoTOP-ABPP reactivity ratio, Q9HB90_C358 / isoTOP-ABPP reactivity profile ratio, Q9HB90_C358: 500 μm
DDX59 C414 (Q5T1V6) = target: T1, DDX59 C414 (Q5T1V6) (Homo sapiens, UniProt Q5T1V6); conditions: for R value (DMSO/fragment): 500 μM
T1 sequence (Q5T1V6 1-619): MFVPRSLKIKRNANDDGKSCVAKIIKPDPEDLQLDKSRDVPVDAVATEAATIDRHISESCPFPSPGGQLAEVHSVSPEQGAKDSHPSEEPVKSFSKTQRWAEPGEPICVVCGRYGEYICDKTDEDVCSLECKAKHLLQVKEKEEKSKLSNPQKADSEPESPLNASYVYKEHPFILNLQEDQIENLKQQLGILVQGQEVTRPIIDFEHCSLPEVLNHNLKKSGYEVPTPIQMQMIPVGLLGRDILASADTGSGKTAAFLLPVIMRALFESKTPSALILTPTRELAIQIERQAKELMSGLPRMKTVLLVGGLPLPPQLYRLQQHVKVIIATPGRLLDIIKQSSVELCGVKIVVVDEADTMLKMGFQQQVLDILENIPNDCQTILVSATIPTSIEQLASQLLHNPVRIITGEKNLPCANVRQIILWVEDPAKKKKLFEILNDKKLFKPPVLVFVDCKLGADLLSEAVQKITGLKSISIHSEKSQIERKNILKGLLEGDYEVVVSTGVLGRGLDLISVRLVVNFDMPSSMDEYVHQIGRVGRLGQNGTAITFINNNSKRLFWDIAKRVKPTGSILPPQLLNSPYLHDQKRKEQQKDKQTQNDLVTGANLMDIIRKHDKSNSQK

USP48 C39 (Q86UV5) = target: T2, USP48 C39 (Q86UV5) (Homo sapiens, UniProt Q86UV5); conditions: for R value (DMSO/fragment) / isoTOP-ABPP ratio, Q86UV5_C39: 500 μM
T2 sequence (Q86UV5 1-1035): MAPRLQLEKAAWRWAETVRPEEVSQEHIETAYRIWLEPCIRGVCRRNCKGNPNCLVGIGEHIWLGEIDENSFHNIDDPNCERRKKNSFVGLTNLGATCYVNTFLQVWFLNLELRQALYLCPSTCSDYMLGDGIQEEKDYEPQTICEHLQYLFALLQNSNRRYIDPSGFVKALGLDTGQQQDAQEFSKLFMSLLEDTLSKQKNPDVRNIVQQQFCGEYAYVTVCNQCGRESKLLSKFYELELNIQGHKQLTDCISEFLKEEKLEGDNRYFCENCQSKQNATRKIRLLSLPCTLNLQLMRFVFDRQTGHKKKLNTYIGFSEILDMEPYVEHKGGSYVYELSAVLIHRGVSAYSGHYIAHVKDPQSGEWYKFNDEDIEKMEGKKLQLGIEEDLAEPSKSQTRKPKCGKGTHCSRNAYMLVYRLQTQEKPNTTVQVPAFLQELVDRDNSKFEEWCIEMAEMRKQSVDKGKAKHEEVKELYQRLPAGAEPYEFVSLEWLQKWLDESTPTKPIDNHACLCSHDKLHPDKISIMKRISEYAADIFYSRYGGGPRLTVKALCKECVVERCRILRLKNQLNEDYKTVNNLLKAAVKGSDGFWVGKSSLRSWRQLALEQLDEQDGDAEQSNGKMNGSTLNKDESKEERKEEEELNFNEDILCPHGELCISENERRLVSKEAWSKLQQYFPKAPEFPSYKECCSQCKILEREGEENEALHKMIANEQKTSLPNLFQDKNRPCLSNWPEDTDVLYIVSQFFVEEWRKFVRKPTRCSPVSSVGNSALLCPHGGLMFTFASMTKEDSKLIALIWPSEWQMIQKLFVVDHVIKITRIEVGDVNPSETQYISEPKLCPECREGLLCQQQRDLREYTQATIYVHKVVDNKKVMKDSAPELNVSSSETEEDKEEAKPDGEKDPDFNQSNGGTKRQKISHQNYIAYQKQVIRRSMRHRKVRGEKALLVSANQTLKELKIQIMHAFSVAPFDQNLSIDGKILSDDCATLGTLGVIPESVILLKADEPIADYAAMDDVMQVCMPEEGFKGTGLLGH

MLTK C22 (Q9NYL2) = MLTK C22 (Q9NYL2) (Homo sapiens, UniProt Q9NYL2); conditions: for R value (DMSO/fragment): in vitro, MDA-MB-231; for isoTOP-ABPP ratio (reactivity profile), Q9NYL2_C22: 500 μm in-vitro ramos_231; for isoTOP-ABPP reactivity ratio, Q9NYL2_C22: 500 μm, in-vitro_ramos_231
Sequence of MLTK C22 (Q9NYL2) (Q9NYL2 whole entry, the tested form may be a part): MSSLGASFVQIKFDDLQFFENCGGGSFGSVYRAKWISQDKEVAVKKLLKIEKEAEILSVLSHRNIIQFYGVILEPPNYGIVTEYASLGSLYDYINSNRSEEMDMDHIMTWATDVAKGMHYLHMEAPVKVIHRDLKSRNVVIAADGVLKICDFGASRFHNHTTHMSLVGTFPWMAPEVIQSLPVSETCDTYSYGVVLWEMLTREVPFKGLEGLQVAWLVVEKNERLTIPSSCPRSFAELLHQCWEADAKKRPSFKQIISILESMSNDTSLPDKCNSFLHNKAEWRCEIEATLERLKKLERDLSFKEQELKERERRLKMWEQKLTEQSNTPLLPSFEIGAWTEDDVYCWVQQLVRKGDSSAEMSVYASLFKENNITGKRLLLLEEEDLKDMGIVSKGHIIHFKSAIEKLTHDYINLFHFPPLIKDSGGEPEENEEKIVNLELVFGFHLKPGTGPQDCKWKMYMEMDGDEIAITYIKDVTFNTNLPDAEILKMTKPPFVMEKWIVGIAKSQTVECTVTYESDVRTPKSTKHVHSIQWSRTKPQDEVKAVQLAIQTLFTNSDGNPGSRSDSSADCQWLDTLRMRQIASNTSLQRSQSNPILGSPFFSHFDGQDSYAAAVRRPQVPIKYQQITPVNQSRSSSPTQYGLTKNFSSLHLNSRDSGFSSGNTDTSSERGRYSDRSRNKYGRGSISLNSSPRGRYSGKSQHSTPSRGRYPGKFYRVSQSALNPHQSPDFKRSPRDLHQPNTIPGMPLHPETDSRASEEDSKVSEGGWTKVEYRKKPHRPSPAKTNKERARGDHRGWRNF

Sequence of RRAGC C358 (Q9HB90) (Q9HB90 2-399 limits assumed): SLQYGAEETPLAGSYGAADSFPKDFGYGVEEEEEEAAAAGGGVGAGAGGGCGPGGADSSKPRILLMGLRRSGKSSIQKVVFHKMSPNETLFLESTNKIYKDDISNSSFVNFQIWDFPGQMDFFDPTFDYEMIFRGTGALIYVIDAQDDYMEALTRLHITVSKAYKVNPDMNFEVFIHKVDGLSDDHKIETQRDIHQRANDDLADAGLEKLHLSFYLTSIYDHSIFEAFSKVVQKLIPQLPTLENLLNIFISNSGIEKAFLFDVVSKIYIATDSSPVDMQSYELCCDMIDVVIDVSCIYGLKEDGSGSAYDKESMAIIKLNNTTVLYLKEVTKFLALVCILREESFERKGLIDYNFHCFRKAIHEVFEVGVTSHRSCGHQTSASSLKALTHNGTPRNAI
Sequence of RRAGC C358 (Q9HB90) (Q7L523 whole entry partner, the tested form may be a part): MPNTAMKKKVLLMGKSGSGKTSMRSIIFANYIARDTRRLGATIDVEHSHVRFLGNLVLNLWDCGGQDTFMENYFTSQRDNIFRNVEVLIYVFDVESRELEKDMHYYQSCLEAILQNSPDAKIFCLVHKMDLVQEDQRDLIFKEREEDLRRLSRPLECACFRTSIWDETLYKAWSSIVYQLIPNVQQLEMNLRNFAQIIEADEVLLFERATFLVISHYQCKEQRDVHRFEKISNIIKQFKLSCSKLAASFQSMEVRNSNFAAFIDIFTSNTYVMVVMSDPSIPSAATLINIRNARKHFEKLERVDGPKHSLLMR
Sequence of LRBA C2675 (P50851) (P50851 whole entry, the tested form may be a part): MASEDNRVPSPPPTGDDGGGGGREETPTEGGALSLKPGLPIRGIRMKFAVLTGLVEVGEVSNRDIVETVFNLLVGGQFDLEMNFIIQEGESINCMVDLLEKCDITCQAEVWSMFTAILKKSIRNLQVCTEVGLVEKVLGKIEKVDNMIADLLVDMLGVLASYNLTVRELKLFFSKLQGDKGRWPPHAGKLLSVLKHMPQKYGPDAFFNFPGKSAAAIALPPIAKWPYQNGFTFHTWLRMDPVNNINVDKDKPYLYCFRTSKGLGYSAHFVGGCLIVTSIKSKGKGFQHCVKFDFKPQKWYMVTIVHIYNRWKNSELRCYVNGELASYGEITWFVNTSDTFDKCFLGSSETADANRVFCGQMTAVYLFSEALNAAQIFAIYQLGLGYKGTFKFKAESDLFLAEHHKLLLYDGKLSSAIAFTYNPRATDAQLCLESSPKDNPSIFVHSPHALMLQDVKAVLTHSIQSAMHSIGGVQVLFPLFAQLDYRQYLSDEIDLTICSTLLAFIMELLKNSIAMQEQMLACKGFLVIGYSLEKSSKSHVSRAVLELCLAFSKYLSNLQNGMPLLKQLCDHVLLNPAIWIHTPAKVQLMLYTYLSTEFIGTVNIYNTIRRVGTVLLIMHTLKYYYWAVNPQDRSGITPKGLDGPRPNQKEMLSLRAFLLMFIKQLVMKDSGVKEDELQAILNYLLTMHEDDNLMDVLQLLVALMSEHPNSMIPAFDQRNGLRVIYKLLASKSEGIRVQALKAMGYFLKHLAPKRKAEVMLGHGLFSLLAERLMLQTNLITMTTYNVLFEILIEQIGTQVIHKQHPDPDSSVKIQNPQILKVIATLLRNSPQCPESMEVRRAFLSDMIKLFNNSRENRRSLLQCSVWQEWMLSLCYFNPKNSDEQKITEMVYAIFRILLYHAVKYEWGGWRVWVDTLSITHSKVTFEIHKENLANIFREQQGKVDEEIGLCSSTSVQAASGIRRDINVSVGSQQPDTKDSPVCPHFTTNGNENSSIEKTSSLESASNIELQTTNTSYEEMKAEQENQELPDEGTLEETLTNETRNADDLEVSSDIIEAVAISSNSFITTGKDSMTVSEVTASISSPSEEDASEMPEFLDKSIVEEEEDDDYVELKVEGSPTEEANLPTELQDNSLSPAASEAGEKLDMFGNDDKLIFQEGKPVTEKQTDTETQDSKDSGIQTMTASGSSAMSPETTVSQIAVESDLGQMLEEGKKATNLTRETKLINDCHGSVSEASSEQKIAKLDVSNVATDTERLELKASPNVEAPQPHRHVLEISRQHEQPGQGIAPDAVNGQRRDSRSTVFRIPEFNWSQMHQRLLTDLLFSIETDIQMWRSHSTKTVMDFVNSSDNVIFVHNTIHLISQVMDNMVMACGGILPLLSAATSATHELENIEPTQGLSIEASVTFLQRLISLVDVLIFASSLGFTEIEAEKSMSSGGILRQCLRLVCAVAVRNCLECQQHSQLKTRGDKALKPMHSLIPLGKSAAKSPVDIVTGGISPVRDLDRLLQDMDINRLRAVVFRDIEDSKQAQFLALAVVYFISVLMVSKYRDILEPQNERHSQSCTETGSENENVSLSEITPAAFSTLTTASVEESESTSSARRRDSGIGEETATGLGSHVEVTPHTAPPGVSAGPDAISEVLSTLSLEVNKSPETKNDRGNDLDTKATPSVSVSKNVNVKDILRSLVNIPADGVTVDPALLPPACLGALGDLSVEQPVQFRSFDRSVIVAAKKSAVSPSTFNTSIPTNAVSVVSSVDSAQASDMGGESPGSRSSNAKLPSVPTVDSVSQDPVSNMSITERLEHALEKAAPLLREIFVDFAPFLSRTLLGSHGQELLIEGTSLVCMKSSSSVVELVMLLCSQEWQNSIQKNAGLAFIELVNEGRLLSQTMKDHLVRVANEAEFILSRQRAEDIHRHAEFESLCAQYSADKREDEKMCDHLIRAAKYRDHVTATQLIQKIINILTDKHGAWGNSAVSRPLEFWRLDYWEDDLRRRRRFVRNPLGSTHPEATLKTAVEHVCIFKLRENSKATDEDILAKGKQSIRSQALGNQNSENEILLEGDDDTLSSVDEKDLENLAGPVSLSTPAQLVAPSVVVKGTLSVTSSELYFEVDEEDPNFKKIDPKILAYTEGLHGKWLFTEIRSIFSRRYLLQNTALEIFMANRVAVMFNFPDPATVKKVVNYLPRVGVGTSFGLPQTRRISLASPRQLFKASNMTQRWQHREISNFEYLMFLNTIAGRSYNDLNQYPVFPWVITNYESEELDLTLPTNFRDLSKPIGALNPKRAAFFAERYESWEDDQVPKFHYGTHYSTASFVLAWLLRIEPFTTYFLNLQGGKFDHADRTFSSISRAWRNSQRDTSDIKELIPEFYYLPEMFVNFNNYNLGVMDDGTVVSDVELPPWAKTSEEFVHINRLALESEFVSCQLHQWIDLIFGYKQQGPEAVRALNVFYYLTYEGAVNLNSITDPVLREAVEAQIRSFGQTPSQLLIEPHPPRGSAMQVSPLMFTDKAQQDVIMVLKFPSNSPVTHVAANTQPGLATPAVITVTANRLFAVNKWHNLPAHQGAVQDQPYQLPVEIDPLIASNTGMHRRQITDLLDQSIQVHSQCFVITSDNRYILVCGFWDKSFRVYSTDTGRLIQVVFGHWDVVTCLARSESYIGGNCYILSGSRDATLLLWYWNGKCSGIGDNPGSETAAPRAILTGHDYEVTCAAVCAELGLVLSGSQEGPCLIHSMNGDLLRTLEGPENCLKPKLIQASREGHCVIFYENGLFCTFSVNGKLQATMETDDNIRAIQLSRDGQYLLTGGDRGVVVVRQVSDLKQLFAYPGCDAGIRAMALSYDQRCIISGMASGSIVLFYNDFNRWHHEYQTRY

R value (DMSO/fragment) (LRBA C2675 (P50851)): 3.0
R value (DMSO/fragment) (RRAGC C358 (Q9HB90); 500 μM, in vitro, MDA-MB-231): 20.0
R value (DMSO/fragment) (RRAGC C358 (Q9HB90); 500 μM, invitro, ramos): 20.0
R value (DMSO/fragment) (DDX59 C414 (Q5T1V6); in vitro, MDA-MB-231): 20.0
R value (DMSO/fragment) (DDX59 C414 (Q5T1V6); invitro, ramos): 20.0
R value (DMSO/fragment) (USP48 C39 (Q86UV5); invitro, ramos): 7.1
R value (DMSO/fragment) (MLTK C22 (Q9NYL2); 500 μM): 20.0
Compound: COc1ccc2c(c1)CCCN2C(=O)CCl [compound 2]

isoTOP-ABPP ratio, P50851_C2675 (LRBA C2675 (P50851)): 20.0
isoTOP-ABPP ratio, Q86UV5_C39 (USP48 C39 (Q86UV5); invitro, ramos): 1.2
isoTOP-ABPP ratio Q9NYL2_C22 (MLTK C22 (Q9NYL2); 500 μM, invitro, 231): 20.0
Compound: C=CC(=O)N(c1ccccc1)c1ccc(Br)cc1 [compound 5]

isoTOP-ABPP ratio (reactivity profile), Q9HB90_C358 (RRAGC C358 (Q9HB90)): 0.3
isoTOP-ABPP ratio (reactivity profile), Q5T1V6_C414 (DDX59 C414 (Q5T1V6); 500 μm in-vitro ramos): 1.0
isoTOP-ABPP ratio (reactivity profile), Q5T1V6_C414 (DDX59 C414 (Q5T1V6); 500 μm in-vitro ramos_231): 0.8
isoTOP-ABPP ratio (reactivity profile), Q86UV5_C39 (USP48 C39 (Q86UV5); 500 μm in-vitro ramos_231): 0.8
isoTOP-ABPP ratio (reactivity profile), Q9NYL2_C22 (MLTK C22 (Q9NYL2)): 1.1
Compound: CC(C)CCOCCNC(=O)CCl [compound 27]

Compound: O=C(CCl)N1CCOCC1 [compound 22]
isoTOP-ABPP ratio (reactivity profile), P50851_C2675 (LRBA C2675 (P50851); 500 μm in-vitro ramos): 1.1
isoTOP-ABPP ratio (reactivity profile), P50851_C2675 (LRBA C2675 (P50851); 500 μm in-vitro ramos_231): 1.1
isoTOP-ABPP ratio (reactivity profile), Q9HB90_C358 (RRAGC C358 (Q9HB90)): 1.7
isoTOP-ABPP ratio (reactivity profile), Q5T1V6_C414 (DDX59 C414 (Q5T1V6); 500 μm in-vitro ramos): 1.3
isoTOP-ABPP ratio (reactivity profile), Q9NYL2_C22 (MLTK C22 (Q9NYL2)): 1.0

R value (DMSO/fragment) (LRBA C2675 (P50851)): 5.1
R value (DMSO/fragment) (RRAGC C358 (Q9HB90); 500 μM, in vitro, MDA-MB-231): 1.2
R value (DMSO/fragment) (DDX59 C414 (Q5T1V6); invitro, ramos): 6.0
R value (DMSO/fragment) (USP48 C39 (Q86UV5); in vitro, MDA-MB-231): 1.8
R value (DMSO/fragment) (USP48 C39 (Q86UV5); invitro, ramos): 1.5
R value (DMSO/fragment) (MLTK C22 (Q9NYL2); 500 μM): 1.8
Compound: O=C(CCl)Nc1cc(C(F)(F)F)cc(C(F)(F)F)c1 [compound 3]

isoTOP-ABPP reactivity ratio, P50851_C2675 (LRBA C2675 (P50851); in-vitro_ramos): 1.1
isoTOP-ABPP reactivity ratio, Q5T1V6_C414 (DDX59 C414 (Q5T1V6); 500 μm, in-vitro_ramos_231): 0.6
isoTOP-ABPP reactivity ratio, Q9NYL2_C22 (MLTK C22 (Q9NYL2)): 0.8
Compound: O=C(CCl)N(Cc1ccc(F)cc1)C12CC3CC(CC(C3)C1)C2 [compound 34]

isoTOP-ABPP ratio, P50851_C2675 (LRBA C2675 (P50851)): 1.5
Compound: O=C(CCl)NC(=O)NC12CC3CC(CC(C3)C1)C2 [compound 12]

isoTOP-ABPP ratio, P50851_C2675 (LRBA C2675 (P50851)): 1.3
isoTOP-ABPP ratio, Q86UV5_C39 (USP48 C39 (Q86UV5); invitro, 231): 2.5
Compound: O=C(CCl)N1CCN(S(=O)(=O)c2ccccc2F)CC1 [compound 10]

isoTOP-ABPP reactivity ratio, P50851_C2675 (LRBA C2675 (P50851); in-vitro_ramos_231): 1.9
isoTOP-ABPP reactivity ratio, Q9HB90_C358 (RRAGC C358 (Q9HB90); in-vitro_ramos_231): 1.3
isoTOP-ABPP reactivity ratio, Q5T1V6_C414 (DDX59 C414 (Q5T1V6); 500 μm, in-vitro_ramos): 1.0
isoTOP-ABPP reactivity ratio, Q5T1V6_C414 (DDX59 C414 (Q5T1V6); 500 μm, in-vitro_ramos_231): 1.2
isoTOP-ABPP reactivity ratio, Q9NYL2_C22 (MLTK C22 (Q9NYL2)): 1.5
Compound: Cc1ccc(C=C(C#N)C(=O)NCCN2CCOCC2)cc1 [compound 41]

isoTOP-ABPP reactivity ratio, P50851_C2675 (LRBA C2675 (P50851); in-vitro_ramos): 1.1
isoTOP-ABPP reactivity ratio, P50851_C2675 (LRBA C2675 (P50851); in-vitro_ramos_231): 1.8
isoTOP-ABPP reactivity ratio, Q9HB90_C358 (RRAGC C358 (Q9HB90); in-vitro_ramos): 1.2
isoTOP-ABPP reactivity ratio, Q9HB90_C358 (RRAGC C358 (Q9HB90); in-vitro_ramos_231): 1.9
isoTOP-ABPP reactivity ratio, Q9NYL2_C22 (MLTK C22 (Q9NYL2)): 2.1
Compound: CC(C)(C)c1cc(NC(=O)CCl)on1 [compound 32]

isoTOP-ABPP ratio, Q9HB90_C358 (RRAGC C358 (Q9HB90); 500 μM, invitro, 231): 1.2
Compound: CNS(=O)(=O)C=Cc1ccc2c(ccn2Cc2ccccc2)c1 [compound 6]

isoTOP-ABPP reactivity profile ratio, Q9HB90_C358 (RRAGC C358 (Q9HB90); in-vitro_ramos_231): 1.1
Compound: C=CC(=O)N(c1ccccc1)C1CCCCC1 [compound 46]

isoTOP-ABPP reactivity ratio, P50851_C2675 (LRBA C2675 (P50851); in-vitro_ramos): 1.0
isoTOP-ABPP reactivity ratio, Q5T1V6_C414 (DDX59 C414 (Q5T1V6); 500 μm, in-vitro_ramos): 1.3
isoTOP-ABPP reactivity ratio, Q86UV5_C39 (USP48 C39 (Q86UV5); 500 μm, in-vitro_ramos): 1.0
Compound: O=C(CCl)Nc1ccccc1C1CCCCCC1 [compound 35]

isoTOP-ABPP reactivity profile ratio, Q86UV5_C39 (USP48 C39 (Q86UV5); 500 μm, in-vitro_ramos_231): 0.9
Compound: O=C(CCl)Nc1ccc(-c2ccccc2)cc1 [compound 52]

isoTOP-ABPP ratio, P50851_C2675 (LRBA C2675 (P50851)): 1.3
isoTOP-ABPP ratio, Q86UV5_C39 (USP48 C39 (Q86UV5); invitro, ramos): 1.0
Compound: Cn1cc(S(=O)(=O)N2CCOCC2)cc1C(=O)NC(=O)CCl [compound 11]

isoTOP-ABPP ratio (reactivity profile), Q9HB90_C358 (RRAGC C358 (Q9HB90)): 1.1
isoTOP-ABPP ratio (reactivity profile), Q9NYL2_C22 (MLTK C22 (Q9NYL2)): 1.4
Compound: COc1ccccc1OCCNC(=O)CCl [compound 28]

isoTOP-ABPP reactivity profile ratio, Q9HB90_C358 (RRAGC C358 (Q9HB90); in-vitro_ramos): 0.6
isoTOP-ABPP reactivity profile ratio, Q5T1V6_C414 (DDX59 C414 (Q5T1V6); 500 μm, in-vitro_ramos_231): 0.8
Compound: C=CC(=O)N1CCC(Cc2ccccc2)CC1 [compound 53]
